This assay relates to normal human dermal fibroblast cultures. The assay can be described thus: incorporation of radioactive glucosamine into the matrix neosynthesized by fibroblast cultures (GAG/hyaluronic acid synthesis). The class given is cell-based. The protocol:
The study was performed by measuring the incorporation of radioactive glucosamine into the matrix neosynthesized by normal human dermal fibroblast cultures. The incorporation of radioactive glucosamine indicated a specific neosynthesis of glycosaminoglycans via incorporation of the acetylated form of this glucosamine.
The fibroblast cultures were prepared according to the standard methods of cell culturing, i.e., in MEM/M199 medium sold by Gibco, in the presence of sodium bicarbonate (1.87 mg/ml), L-glutamine (2 mM), penicillin (50 IU/ml) and 10% foetal calf serum (Gibco).
The test was performed on a cell culture at 80% confluence, on 96-well plates. The C-glycoside derivative at concentrations of 0.1 to 30 mM was placed in contact with the cells for 48 hours. Labeling with radioactive glucosamine (D-[6-H^3]-glucosamine, Amersham TRK398 (814 Gbq/mmol, 22 Ci/mmol)) was performed for 24 hours.
The level of radioactive glucosamine incorporated was measured at the end of the test by adsorption of the anionic molecules onto Q-sepharose beads followed by desorption of the sparingly and moderately anionic molecules with 6M urea plus 0.2M NaCl. Once washed, the radioactivity incorporated into the highly cationic molecules remaining on the support was counted.
The results were evaluated relative to a control consisting of cells that have not been treated with the C-glycoside derivative of formula (I).
A positive control (TGFβ at 10 ng/ml) known to stimulate GAG synthesis was introduced into the test as positive reference.

[1] abbreviates: 0.3 mM, 48 hours contact, labeling 24 hours.
[2] abbreviates: 1 mM, 48 hours contact, labeling 24 hours.
The mark [3] stands for this setting: 3 mM, 48 hours contact, labeling 24 hours.
Setting [4] is: TGFβ at 10 ng/ml, positive control, two values given.
The mark [5] stands for this setting: 0.4 mM, 48 hours contact, labeling 24 hours.
Where [6] appears, read: 2 mM, 48 hours contact, labeling 24 hours.
The mark [7] stands for this setting: 10 mM, 48 hours contact, labeling 24 hours.
The mark [8] stands for this setting: 0.1 mM, 48 hours contact, labeling 24 hours.
Setting [9] is: concentrations of 0.3, 1 and 3 mM.
The mark [10] stands for this setting: 0.5 mM, 48 hours contact, labeling 24 hours.

Where “and” joins values, the source holds several entries; their conditions need not be identical. Identical values can stand only once.

`CC(O)C[C@@H]1OC[C@@H](O)[C@H](O)[C@H]1O` (stereo partly drawn) [C-β-D-Xylopyranoside-2-hydroxypropane, C-β-D-xylopyranoside-2-hydroxypropane]: the “% (relative to untreated control)” value is, setting by setting: under setting [1], 139%; under setting [2], 169%; under setting [3], 218%. The “VALUE (radioactive glucosamine incorporated)” value (“VALUE” for short) is, setting by setting: under setting [1], 11634 cpm; under setting [2], 14209 cpm; under setting [3], 18271 cpm. Further, the “effect on incorporation of radioactive glucosamine” value (“effect on incorporation” below) (concentrations of 0.1, 0.3 and 1 mM) was “stimulates the incorporation of radioactive glucosamine”.
Turning to “TGFβ: positive control (TGFβ at 10 ng/ml) known to stimulate GAG synthesis”, under setting [4], the “% (relative to untreated control)” value was 348% and 454%; the “VALUE” value was 27124 cpm and 34865 cpm.
For the compound `CC(=O)C[C@@H]1OC[C@@H](O)[C@H](O)[C@H]1O` [C-β-D-Xylopyranoside-n-propan-2-one, C-β-D-xylopyranoside-n-propan-2-one], the “% (relative to untreated control)” value runs as follows: under setting [5], 141%; under setting [6], 131%; under setting [7], 161%. The “VALUE” value runs as follows: under setting [5], 8564 cpm; under setting [6], 11014 cpm; under setting [7], 12507 cpm and 9811 cpm. Further, the “effect on incorporation” value (concentrations of 0.4, 2 and 10 mM) is on record as “stimulates the incorporation of radioactive glucosamine”.
Turning to `CC(C[C@@H]1OC[C@@H](O)[C@H](O)[C@H]1O)NCCCO` (stereo partly drawn) [1-[2-(3-Hydroxypropylamio)Propyl]-C-β-D-Xylopyranose], the “% (relative to untreated control)” value is listed as 110% under setting [8], 109% under setting [1] and 140% under setting [2]. Further, the “VALUE” value under setting [8] was found to be 11656 cpm, the “VALUE” value under setting [1] was determined as 11585 cpm and the “VALUE” value under setting [2] is 14832 cpm. Also, the “effect on incorporation” value under setting [9] was “stimulate the incorporation of radioactive glucosamine”.
`O=C(C[C@@H]1OC[C@@H](O)[C@H](O)[C@H]1O)c1ccccc1` [1-Phenyl-2-(C-β-D-Xylopyranoside)Ethan-1-One]: the “% (relative to untreated control)” value is recorded as 120% under setting [8], 102% under setting [1] and 95% under setting [2]. Besides, the “VALUE” value runs as follows: under setting [8], 10113 cpm; under setting [1], 8545 cpm; under setting [2], 7941 cpm. The “effect on incorporation” value under setting [9] is “stimulate the incorporation of radioactive glucosamine”.
Take `O=C[C@H](O)[C@@H](O)[C@H](O)CO` [D-Xylose, reference compound]: under setting [8], the “% (relative to untreated control)” value turned out to be 102% and the “VALUE” value is listed as 6586 cpm. Under setting [10], the “% (relative to untreated control)” value is recorded as 86% and the “VALUE” value is given as 4063 cpm.

(Values after patent publication US20060223763A1, “C-glycoside compounds for stimulating the synthesis of glycosaminoglycans” (L'OREAL S.A., priority 2000, published 2006).)
